# Key:
# [1] = system: biliary cancer, KRAS- or BRAF-mutant colorectal cancer; experiment: Kaplan–Meier PFS and OS, expansion phase cohorts; type: in vivo, human
# Protocol: All patients who received ⩾1 dose of binimetinib were included in the safety analysis. Patients in the safety analysis who had ⩾1 measurable lesion at baseline and at least 1 post-baseline disease assessment were evaluable for efficacy. Kaplan–Meier estimates of progression-free survival (PFS) and overall survival (OS) were performed for patients in the expansion phase ([Kaplan and Meier, 1958]) using SAS Version 9.2 (SAS Institute Inc., Cary, NC, USA).
# ERK phosphorylation = system: ERK phosphorylation; parameters: method as in Lee et al, 2010; conditions: human cell lines; ref Lee et al, 2010; cited from earlier work
# NRAS-mutant melanoma = system: NRAS-mutant melanoma; parameters: method as in Dummer et al, 2016; conditions: patients with NRAS-mutant melanoma; ref Dummer et al, 2016; cited from earlier work
# Ki67 = experiment: Skin punch biopsy Ki67 immunohistochemistry; type: in vivo, human; conditions: cycle 1 day 15
# Protocol: (§1) Skin punch biopsies (with hair follicles, if feasible) were obtained from patients in the dose-escalation phase and colorectal cancer expansion phase cohorts pre-dose at baseline and post dose within 7 days of cycle 1 day 15 for measurement of Ki67 and pERK expression. Ki67 and pERK expression were determined by immunohistochemistry using a Ki67 rabbit monoclonal antibody (clone 30-9; Ventana Medical Systems, Inc., Tucson, AZ, USA) and a pERK rabbit monoclonal antibody (Thr202/Tyr204, clone 20G11; Cell Signaling Technology, Inc., Danvers, MA), respectively, visualised with DAB and counterstained with haematoxylin. Ki67 was expressed as percentage of tumour cells with positive stain; pERK was expressed as an H-score.
# human cancer cell lines = system: human cancer cell lines; parameters: method as in Lee et al, 2010; conditions: subset of cells; particularly active with activating BRAF, NRAS, KRAS mutations; ref Lee et al, 2010; cited from earlier work
# [2] = system: xenograft models derived from melanoma, colorectal cancer, NSCLC, fibrosarcoma, cholangiocarcinoma, and pancreatic cancer; parameters: method as in Lee et al, 2010; Woessner et al, 2010; conditions: non-clinical data, ref Lee et al, 2010, Woessner et al; cited from earlier work
# [3] = parameters: method as in Watanabe et al, 2016; conditions: BID; Japanese patients with advanced solid tumours; ref Watanabe et al, 2016; cited from earlier work
# [4] = system: C-reactive protein, interferon, IL-10, IL-12p70, IL-1β, IL-6, or IL-8; experiment: Serum cytokines other than TNF-α; type: in vivo, human
# pERK = experiment: Skin punch biopsy pERK immunohistochemistry; type: in vivo, human; conditions: cycle 1 day 15
# Protocol: as §1
# purified MEK enzyme = biological target: purified MEK enzyme; parameters: method as in Lee et al, 2010; Woessner et al, 2010; conditions: ref Lee et al, 2010, Woessner et al, read-out: half-maximal inhibitory concentration; cited from earlier work
# [5] = Phase 1 dose escalation: DLTs and MTD; type: in vivo
# Protocol: This multicentre, open-label, phase 1 study comprised two phases: a dose-escalation phase and an expansion phase. In the dose-escalation phase, a modified 3+3 design was employed to determine the MTD of binimetinib administered orally twice daily (BID) in a 21-day treatment cycles. A single dose of binimetinib was administered on day 1 and then BID continuously beginning on day 2 of cycle 1. A starting dose of 30 mg BID was utilised for the dose-escalation phase. The dose was escalated in cohorts of at least three evaluable patients at 45 mg BID, 60 mg BID, and 80 mg BID until MTD was determined. Patients in the expansion phase received continuous BID treatment with binimetinib beginning on day 1 of cycle 1 at the MTD determined in the dose-escalation phase. Patients were instructed to take BID doses 12±2 h apart with water, irrespective of food.
# Dose-limiting toxicities (DLTs) were any adverse event (AE) not clearly attributable to the patient's disease, including haematologic toxicities of grade 4 neutropenia for ⩾5 days, febrile neutropenia, grade 4 thrombocytopenia, and grade 3 thrombocytopenia with bleeding. […]
# [6] = BRAF-mutant colorectal cancer cohort (45 mg BID)
# [7] = KRAS-mutant colorectal cancer 45 mg dose cohort
# [8] = KRAS-mutant colorectal cancer 60 mg dose cohort
smiles,measurement,setting,value
Cn1cnc2c(F)c(Nc3ccc(Br)cc3F)c(C(=O)NOCCO)cc21 [binimetinib],Median OS,[1]; [6],7.1 months
same,Median PFS,[1]; [6],1.4 months
same,Median OS,[1]; [7],4.7 months
same,Median PFS,[1]; [7],1.5 months
same,Median OS,[1]; [8],9.1 months
same,Median PFS,[1]; [8],3.5 months
same,Median OS,[1]; biliary cohort (60 mg BID),4.8 months
same,Median PFS,[1]; biliary cohort (60 mg BID),2.1 months
same,Inhibition of ERK phosphorylation,ERK phosphorylation,markedly inhibits
same,PFS vs dacarbazine,NRAS-mutant melanoma,significantly longer PFS
same,"Skin expression of Ki67, median (range) percent of baseline",Ki67; 30 mg BID (n=4),44 (25–56) percent of baseline
same,"Skin expression of Ki67, median (range) percent of baseline",Ki67; 45 mg BID (n=22),33 (6–300) percent of baseline
same,"Skin expression of Ki67, median (range) percent of baseline",Ki67; 60 mg BID (n=7),31 (17–100) percent of baseline
same,"Skin expression of Ki67, median (range) percent of baseline",Ki67; Total (N=33),33 (6–300) percent of baseline
same,Inhibition of proliferation,human cancer cell lines,potently inhibits
same,Anti-tumour activity in xenograft models,[2],broad anti-tumour activity
same,MTD/recommended phase 2 dose,[3],45 mg
same,"Changes in C-reactive protein, interferon, IL-10, IL-12p70, IL-1β, IL-6, or IL-8",[4],no notable changes
same,"Skin expression of pERK, median (range) percent of baseline",pERK; 30 mg BID (n=4),88 (50–100) percent of baseline
same,"Skin expression of pERK, median (range) percent of baseline",pERK; 45 mg BID (n=22),66 (38–189) percent of baseline
same,"Skin expression of pERK, median (range) percent of baseline",pERK; 60 mg BID (n=7),59 (29–72) percent of baseline
same,"Skin expression of pERK, median (range) percent of baseline",pERK; Total (N=33),64 (29–189) percent of baseline
same,IC50,purified MEK enzyme,12 nM
same,Recommended phase 2 dose,"[5]; human, in vivo, 21 day",45 mg
same,Maximum tolerated dose (MTD),"[5]; orally twice daily (BID), 21-day cycles, patients with advanced solid tumours",60 mg
